From US12187758B2 (ROME Therapeutics, Inc., priority 2022, dated 2025)
Read-outs that look alike come from different tables or passages of the source.

What was measured:
THP1-Dual KO-TREX1 cells = assay: THP1 TREX1 KO inhibition assay, combination dosing; assay type: cell-based; conditions: for EC50: Homo sapiens, THP1-Dual, read-out: EC50 of Compound 2
Method: Exemplary compounds were tested to determine the effect of combined dosing of two compounds on the type 1 interferon response in THP1 Dual TREX1 KO cells treated with 5-aza-2′-deoxycytidine. Assay procedures and results are described below.
THP1 Dual TREX1 KO cells were purchased from InvivoGen. The THP1-Dual™ KO-TREX1 cells were cultured in RPMI 1640, 10% heat-inactivated fetal bovine serum, 25 mM HEPES, 10 μg/mL blasticidin, and 100 μg/mL Zeocin. THP1-Dual™ KO-TREX1 cells were treated with a dose titration of test compound in the presence of 1 μM 5-aza-2′-deoxycytidine (Sigma, cat #189825). Type 1 Interferon and cell viability were assessed after five days of treatment.
Stock solution of test compounds stampidine and Compound 2 were prepared in DMSO followed by a three-fold dilution in DMSO. The plate was prepared with a matrix of test compound concentrations, with stampidine on the y-axis (final concentrations 3 μM to 0.0003 μM) and Compound 2 on the x-axis (final concentrations 0.3 μM to 0.00003 μM). Additional 50× dilution was prepared in cell culture media for each dilution. 10 μL of diluted test compound was then added to a 384-well plate.
THP1-Dual™ KO-TREX1 cells were treated with 1 μM 5-aza-2′-deoxycytidine. THP1-Dual™ KO-TREX1 cells (50 μL) were added to each well of the 384-well plate containing test compound titration at 10,000 cells/well. Cells were incubated at 37° C., 5% CO2 in a humidified incubator for five days. On day five, 20 μL of cell supernatant was transferred to a 384-well, white-walled plate, followed by addition to each well of 50 μL of QUANTI-LUC solution containing stabilizer. Luminescence was detected on a plate reader according to manufacturer's instructions. Percent inhibition of interferon was calculated using the following analysis: (Average DMSO-Sample)/(Average DMSO-Average 30 μM stampidine)*100.
The remaining cells were assessed for cell viability by adding 30 μl of CellTiter-Glo (Promega, G9683) solution to each well, and placed on a shaker for 10 minutes at room temperature. Luminescence was detected on a plate reader, according to manufacturer's instructions. Percent inhibition of cell viability using CellTiter-Glo was calculated using the following analysis: (Average DMSO−Sample)/(Average DMSO−Average 20 μM viability control reagent)*100.
Combination analysis was performed using the Bivariate Response to Additive Interacting Doses (BRAID) according to Twarog, N. R., et al. Scientific Reports 6:25523 (DOI: 10.1038/srep25523). The best BRAID fit was determined to be k 2.00 (0.583-3.64), where k>0 denotes synergy, k=0 denotes additivity, and k<0 denotes antagonism. Potentiation modeling curves are provided for potentiation of Compound 2 at four concentrations of stampidine (FIG. 7A) and for potentiation of stampidine at four concentrations of Compound 2 (FIG. 7B).

[1] = system: THP1-Dual KO-TREX1 xenograft tumors; assay: Altering IFN production in THP1 TREX1 KO xenografts; assay type: in vivo, CB-17 SCID female mice; conditions: decitabine 5 mg/kg IP, test compound 10, 30, or 100 mg/kg PO once daily for 4 days; tumors 24 h post-last dose; FIG. 6
Method: Exemplary compounds 2, 25 and 40 were tested for their ability to alter IFN levels in THP1-Dual™ KO-TREX1 xenografts in mice. Assay procedures are described below.
CB-17 SCID female mice were inoculated subcutaneously with 10 million THP1-Dual™ KO-TREX1 cells in 200 μl PBS with Matrigel (1:1) and grouped when tumor volume reached 350-400 mm^3. Mice bearing THP1-Dual™ KO-TREX1 xenograft tumors were then separated into 5 groups. Three groups were administered: (1) decitabine (DAC) at 5 mg/kg IP, once daily, for 4 days, and (2) test compound at 10, 30, or 100 mg/kg, PO, once daily, for 4 days. One group was administered decitabine (DAC) at 5 mg/kg IP, once daily, for 4 days, and the test compound vehicle control. The final group was administered the vehicle control from both the test compound and the vehicle control from decitabine. Decitabine is formulated in sterile PBS, pH 7.4, and Compound 2, 25, and 40 were formulated in 20% PEG400 in PBS.
Tumors were harvested 24 h post-last dose administered on day 4, ground in PBS at 50 Hz for 5 min, and kept on ice for 30 min while being vortexed every 5 min. […] Equal amounts of proteins were added to 96-well black plates, and luciferase signal was measured using the QUANTI-Luc™ detection medium according to manufacturer's instructions. Luminescence was measured using the EnVision® 2105 Multimode Plate Reader. […]

[2] = system: THP1-Dual KO-TREX1 xenograft tumors; assay: Altering IFN production in THP1-Dual KO-TREX1 mouse xenografts (Compound 67); assay type: in vivo, CB-17 SCID female mice; conditions: decitabine 5 mg/kg SC, compound 0.3-100 mg/kg PO once daily for 5 days; tumors 4 h post-last dose; FIG. 9
Method: Exemplary Compound 67 was tested for its ability to alter IFN levels in THP1-Dual™ KO-TREX1 xenografts in mice. Assay procedures are described below.
CB-17 SCID female mice were inoculated subcutaneously with 10 million THP1-Dual™ KO-TREX1 cells in 200 μl PBS with Matrigel (1:1) and grouped at N=5 per treatment per sampling timepoint when tumor volume reached an average of 340 mm^3. Six groups were co-administered: (1) decitabine (DAC) at 5 mg/kg SC, once daily, for 5 days, and (2) test compound 67 at one of six doses (0.3 mg/kg PO, 1 mg/kg PO, 3 mg/kg PO, 10 mg/kg PO, 30 mg/kg PO, 100 mg/kg PO) once daily, for 5 days. Two additional groups were administered (1) decitabine and test compound vehicle control SC+PO, once daily, for 5 days, and (2) decitabine at 5 mg/kg SC, once daily, for 5 days. […]
Tumors were harvested 4 h post-last dose administered on day 5, grinded in PBS at 50 Hz for 5 min, kept on ice for 30 min while being vortexed every 5 min. […] Equal amounts of proteins were added to 96-well black plates, and luciferase signal was measured using the QUANTI-Luc™ detection medium according to manufacturer's instructions. Luminescence was measured using the EnVision® 2105 Multimode Plate Reader.
Experimental results are depicted in FIG. 9. […] In FIG. 9, IFN signal was measured in tumors harvested from mice 4 hours after the final decitabine and test compound dosing on day 5.

| SMILES | EC50 (THP1-Dual KO-TREX1 cells; Stampidine 0 μM) | EC50 (THP1-Dual KO-TREX1 cells; Stampidine 0.001 μM) | EC50 (THP1-Dual KO-TREX1 cells; Stampidine 0.01 μM) | EC50 (THP1-Dual KO-TREX1 cells; Stampidine 0.1 μM) | BRAID fit k (k>0 denotes synergy) (THP1-Dual KO-TREX1 cells; combination of stampidine and Compound 2, 1 μM 5-aza-2′-deoxycytidine, five days) | inhibition of DAC-induced IFN signal in THP1 tumors [1] | inhibition of DAC-induced IFN signal in THP1 tumors [2] |
| --- | --- | --- | --- | --- | --- | --- | --- |
| Nc1ccn([C@H]2C[C@H](O)[C@](CO)(CCl)O2)c(=O)n1 [Compound 2, 4-amino-1-((2R,4S,5R)-5-(chloromethyl)-4-hydroxy-5-(hydroxymethyl)tetrahydrofuran-2-yl)pyrimidin-2(1H)-one] | 40 nM | 33.5 nM | 20.3 nM | 0.15 nM | 2.00 (0.583-3.64) | potent inhibition of DAC-induced IFN signal | – |
| Nc1ccn([C@@H]2O[C@@](CO)(CCl)[C@@H](O)[C@@H]2F)c(=O)n1 [Compound 40, 4-amino-1-((2R,3S,4R,5R)-5-(chloromethyl)-3-fluoro-4-hydroxy-5-(hydroxymethyl)tetrahydrofuran-2-yl)pyrimidin-2(1H)-one] | – | – | – | – | – | potent inhibition of DAC-induced IFN signal | – |
| Nc1nc(=O)n([C@@H]2O[C@@](CO)(CCl)[C@@H](O)[C@@H]2F)cc1F [Compound 67, 4-amino-1-[(2R,3S,4R,5R)-5-(chloromethyl)-3-fluoro-4-hydroxy-5-(hydroxymethyl)oxolan-2-yl]-5-fluoropyrimidin-2-one] | – | – | – | – | – | – | dose-response inhibition of DAC-induced IFN signal |
